Common to all, as to test: biochemical
What all share (format): binding

In assay [1] the target is T1, panel of 442 kinases (Homo sapiens, UniProt P00519, Y253F).
T1 construct: purchased Ambit Biosciences (scanMAXX KINOMEscan)
Particulars: ABL1(Y253F)-phosphorylated; for remaining activity at 1 µM: read-out: % of control at 1 µM.

Assay [2] has as its target T2, panel of 442 kinases (Homo sapiens, UniProt P00533, DEL752-759).
T2 construct: purchased Ambit Biosciences (scanMAXX KINOMEscan)
The note with it: EGFR(S752-I759del); for remaining activity at 1 µM: read-out: % of control at 1 µM.

The target in assay [3] is T3, panel of 442 kinases (Homo sapiens, UniProt P16234).
T3 construct: purchased Ambit Biosciences (scanMAXX KINOMEscan)
Particulars: kinase PDGFRA; for remaining activity at 1 µM: read-out: % of control at 1 µM.

In assay [4] the target is T4, panel of 442 kinases (Homo sapiens, UniProt P29376).
T4 construct: purchased Ambit Biosciences (scanMAXX KINOMEscan)
Particulars: kinase LTK; for remaining activity at 1 µM: read-out: % of control at 1 µM.

Assay [5] addresses T5, panel of 442 kinases (Homo sapiens, UniProt P31749).
T5 construct: purchased Ambit Biosciences (scanMAXX KINOMEscan)
Particulars: AKT1; for remaining activity at 1 µM: read-out: % of control at 1 µM.

Assay [6] has as its target T6, panel of 442 kinases (Homo sapiens, UniProt P35916).
T6 construct: purchased Ambit Biosciences (scanMAXX KINOMEscan)
The note with it: kinase FLT4; for remaining activity at 1 µM: read-out: % of control at 1 µM.

Assay [7] deals with T7, panel of 442 kinases (Homo sapiens, UniProt P45985).
T7 construct: purchased Ambit Biosciences (scanMAXX KINOMEscan)
T7 sequence (P45985 1-399): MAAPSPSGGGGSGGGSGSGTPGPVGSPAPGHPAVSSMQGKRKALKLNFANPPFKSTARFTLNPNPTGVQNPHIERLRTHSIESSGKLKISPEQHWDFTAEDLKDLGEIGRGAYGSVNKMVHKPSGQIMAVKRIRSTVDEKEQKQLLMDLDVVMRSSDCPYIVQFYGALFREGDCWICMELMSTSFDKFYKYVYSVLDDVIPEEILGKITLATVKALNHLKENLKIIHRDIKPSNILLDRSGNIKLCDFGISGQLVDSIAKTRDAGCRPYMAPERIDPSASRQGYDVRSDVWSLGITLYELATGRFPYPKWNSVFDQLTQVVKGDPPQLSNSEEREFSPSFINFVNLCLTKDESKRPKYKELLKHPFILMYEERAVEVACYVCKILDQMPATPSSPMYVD
The note with it: kinase MEK4; for remaining activity at 1 µM: read-out: % of control at 1 µM.

Assay [8] has as its target T8, panel of 442 kinases (Homo sapiens, UniProt Q04912).
T8 construct: purchased Ambit Biosciences (scanMAXX KINOMEscan)
The note with it: kinase MST1R; for remaining activity at 1 µM: read-out: % of control at 1 µM.

In assay [9] the target is T9, panel of 442 kinases (Homo sapiens, UniProt Q15418).
T9 construct: purchased Ambit Biosciences (scanMAXX KINOMEscan)

In assay [10] the target is T10, panel of 442 kinases (Homo sapiens, UniProt Q6DT37).
T10 construct: purchased Ambit Biosciences (scanMAXX KINOMEscan)
Particulars: DMPK2; for remaining activity at 1 µM: read-out: % of control at 1 µM.

In assay [11] the target is T11, panel of 442 kinases (Homo sapiens, UniProt Q7KZI7).
T11 construct: purchased Ambit Biosciences (scanMAXX KINOMEscan)
The note with it: kinase MARK2; for remaining activity at 1 µM: read-out: % of control at 1 µM.

In assay [12] the target is T12, panel of 442 kinases (Homo sapiens, UniProt Q96PY6).
T12 construct: purchased Ambit Biosciences (scanMAXX KINOMEscan)
T12 sequence (Q96PY6 1-1258): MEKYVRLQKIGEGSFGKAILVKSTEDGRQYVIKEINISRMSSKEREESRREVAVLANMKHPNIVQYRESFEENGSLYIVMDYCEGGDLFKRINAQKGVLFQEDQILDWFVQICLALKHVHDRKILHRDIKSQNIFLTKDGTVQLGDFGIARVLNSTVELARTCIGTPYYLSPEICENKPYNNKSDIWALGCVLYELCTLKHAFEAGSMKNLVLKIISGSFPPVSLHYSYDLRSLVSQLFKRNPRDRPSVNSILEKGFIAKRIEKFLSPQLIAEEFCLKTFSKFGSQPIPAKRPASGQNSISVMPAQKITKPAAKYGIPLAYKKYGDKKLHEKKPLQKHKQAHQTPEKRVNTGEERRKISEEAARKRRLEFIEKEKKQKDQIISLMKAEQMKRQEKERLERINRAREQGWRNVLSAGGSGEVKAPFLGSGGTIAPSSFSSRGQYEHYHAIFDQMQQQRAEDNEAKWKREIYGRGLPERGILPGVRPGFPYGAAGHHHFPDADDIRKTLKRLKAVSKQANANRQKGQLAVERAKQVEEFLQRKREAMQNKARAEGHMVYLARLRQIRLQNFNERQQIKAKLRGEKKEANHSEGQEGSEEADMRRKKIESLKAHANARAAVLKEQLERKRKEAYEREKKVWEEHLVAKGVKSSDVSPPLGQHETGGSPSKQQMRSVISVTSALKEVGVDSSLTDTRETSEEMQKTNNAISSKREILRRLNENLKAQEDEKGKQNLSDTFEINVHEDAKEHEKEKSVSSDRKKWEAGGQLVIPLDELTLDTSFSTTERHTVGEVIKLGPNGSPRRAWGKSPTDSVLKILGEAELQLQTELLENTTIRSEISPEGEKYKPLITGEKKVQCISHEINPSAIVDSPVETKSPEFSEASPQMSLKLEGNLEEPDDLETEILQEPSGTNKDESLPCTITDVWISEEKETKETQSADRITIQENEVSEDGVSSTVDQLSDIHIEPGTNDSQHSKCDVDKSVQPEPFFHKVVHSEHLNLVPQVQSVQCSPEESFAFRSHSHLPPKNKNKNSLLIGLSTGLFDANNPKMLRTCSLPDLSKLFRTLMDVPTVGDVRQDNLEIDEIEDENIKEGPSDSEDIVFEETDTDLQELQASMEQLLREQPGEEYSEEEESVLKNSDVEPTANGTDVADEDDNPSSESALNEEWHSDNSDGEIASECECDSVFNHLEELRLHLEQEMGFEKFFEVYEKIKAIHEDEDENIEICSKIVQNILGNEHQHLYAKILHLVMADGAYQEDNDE
The note with it: kinase NEK1; for remaining activity at 1 µM: read-out: % of control at 1 µM.

Assay [13] deals with T13, panel of 442 kinases (Homo sapiens, UniProt Q96SB4).
T13 construct: purchased Ambit Biosciences (scanMAXX KINOMEscan)
Particulars: kinase SRPK1; for remaining activity at 1 µM: read-out: SRPK1 (% of control at 1 µM).

Assay [14] deals with T14, panel of 442 kinases (Homo sapiens, UniProt Q9P1W9).
T14 construct: purchased Ambit Biosciences (scanMAXX KINOMEscan)
The note with it: kinase PIM2; for remaining activity at 1 µM: read-out: % of control at 1 µM.

[15] abbreviates: 10 µM, read-out: % of control at 10 µM.
The mark [16] stands for this setting: kinase RSK1(Kin.Dom.1-N-terminal), read-out: RSK1(Kin.Dom.1-N-terminal) (% of control at 1 µM).
Where [17] appears, read: kinase RSK1(Kin.Dom.2-C-terminal), read-out: RSK1(Kin.Dom.2-C-terminal) (% of control at 1 µM).

Like-named read-outs stand apart in the source and are kept apart here.

T3 sequence (P16234 24-1089): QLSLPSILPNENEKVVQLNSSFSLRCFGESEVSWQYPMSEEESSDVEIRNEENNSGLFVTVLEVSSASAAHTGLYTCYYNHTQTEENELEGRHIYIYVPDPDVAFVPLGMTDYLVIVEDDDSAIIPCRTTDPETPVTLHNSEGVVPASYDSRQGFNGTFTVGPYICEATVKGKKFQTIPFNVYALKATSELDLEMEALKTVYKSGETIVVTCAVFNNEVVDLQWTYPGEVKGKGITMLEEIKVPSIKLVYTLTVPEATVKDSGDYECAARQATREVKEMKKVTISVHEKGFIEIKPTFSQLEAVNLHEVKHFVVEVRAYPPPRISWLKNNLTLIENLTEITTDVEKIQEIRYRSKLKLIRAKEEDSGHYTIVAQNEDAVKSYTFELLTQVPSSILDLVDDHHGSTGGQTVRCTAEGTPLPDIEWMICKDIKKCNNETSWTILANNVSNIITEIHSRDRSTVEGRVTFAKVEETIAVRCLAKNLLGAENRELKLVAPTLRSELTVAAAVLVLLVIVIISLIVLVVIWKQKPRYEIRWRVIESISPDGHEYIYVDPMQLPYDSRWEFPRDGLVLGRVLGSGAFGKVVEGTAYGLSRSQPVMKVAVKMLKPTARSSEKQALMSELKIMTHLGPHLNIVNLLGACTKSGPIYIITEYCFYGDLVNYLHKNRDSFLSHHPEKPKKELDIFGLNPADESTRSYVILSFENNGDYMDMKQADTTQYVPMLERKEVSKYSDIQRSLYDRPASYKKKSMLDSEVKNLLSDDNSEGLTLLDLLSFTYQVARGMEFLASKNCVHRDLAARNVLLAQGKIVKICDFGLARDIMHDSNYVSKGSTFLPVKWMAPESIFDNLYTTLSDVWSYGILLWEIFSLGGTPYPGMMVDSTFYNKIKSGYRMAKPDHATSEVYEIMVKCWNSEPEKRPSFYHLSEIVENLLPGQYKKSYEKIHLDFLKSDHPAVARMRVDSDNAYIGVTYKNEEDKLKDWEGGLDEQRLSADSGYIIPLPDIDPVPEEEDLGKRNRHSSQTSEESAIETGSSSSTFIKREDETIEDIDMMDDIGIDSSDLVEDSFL
T8 sequence (Q04912 25-1400): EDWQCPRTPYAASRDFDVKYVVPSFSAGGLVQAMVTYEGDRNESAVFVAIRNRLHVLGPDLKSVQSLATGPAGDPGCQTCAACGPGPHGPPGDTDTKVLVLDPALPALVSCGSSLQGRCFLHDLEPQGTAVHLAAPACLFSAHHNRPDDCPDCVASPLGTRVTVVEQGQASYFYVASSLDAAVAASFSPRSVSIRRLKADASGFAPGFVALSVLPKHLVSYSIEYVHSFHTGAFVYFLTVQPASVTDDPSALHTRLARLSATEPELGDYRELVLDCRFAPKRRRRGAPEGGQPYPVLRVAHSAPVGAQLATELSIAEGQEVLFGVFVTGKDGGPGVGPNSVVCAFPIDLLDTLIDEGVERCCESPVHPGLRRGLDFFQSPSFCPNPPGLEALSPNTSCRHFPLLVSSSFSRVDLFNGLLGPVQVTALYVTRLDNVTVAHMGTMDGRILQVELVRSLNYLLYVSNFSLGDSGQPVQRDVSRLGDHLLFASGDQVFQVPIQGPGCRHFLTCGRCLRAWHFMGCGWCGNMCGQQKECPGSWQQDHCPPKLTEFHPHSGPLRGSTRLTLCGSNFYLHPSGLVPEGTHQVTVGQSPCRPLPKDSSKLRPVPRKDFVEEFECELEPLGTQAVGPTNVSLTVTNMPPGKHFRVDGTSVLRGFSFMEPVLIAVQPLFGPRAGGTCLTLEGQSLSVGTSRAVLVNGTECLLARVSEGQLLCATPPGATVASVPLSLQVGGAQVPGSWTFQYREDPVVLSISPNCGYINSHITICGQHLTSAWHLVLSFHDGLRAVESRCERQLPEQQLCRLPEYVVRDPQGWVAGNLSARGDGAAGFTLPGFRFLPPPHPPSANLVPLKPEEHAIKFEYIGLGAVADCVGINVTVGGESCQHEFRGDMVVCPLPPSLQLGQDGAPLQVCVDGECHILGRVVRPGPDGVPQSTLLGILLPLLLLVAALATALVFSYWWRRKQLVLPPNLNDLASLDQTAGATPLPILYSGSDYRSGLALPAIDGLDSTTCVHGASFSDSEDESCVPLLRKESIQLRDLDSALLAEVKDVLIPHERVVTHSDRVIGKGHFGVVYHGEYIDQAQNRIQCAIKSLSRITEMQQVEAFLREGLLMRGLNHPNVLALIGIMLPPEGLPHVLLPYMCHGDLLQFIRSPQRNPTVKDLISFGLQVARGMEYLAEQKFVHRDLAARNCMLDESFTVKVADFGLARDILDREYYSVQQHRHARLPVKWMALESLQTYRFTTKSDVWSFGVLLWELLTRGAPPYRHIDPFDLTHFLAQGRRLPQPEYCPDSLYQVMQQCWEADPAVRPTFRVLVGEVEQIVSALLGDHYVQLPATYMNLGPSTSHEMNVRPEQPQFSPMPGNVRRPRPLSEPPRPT
T10 sequence (Q6DT37 whole entry): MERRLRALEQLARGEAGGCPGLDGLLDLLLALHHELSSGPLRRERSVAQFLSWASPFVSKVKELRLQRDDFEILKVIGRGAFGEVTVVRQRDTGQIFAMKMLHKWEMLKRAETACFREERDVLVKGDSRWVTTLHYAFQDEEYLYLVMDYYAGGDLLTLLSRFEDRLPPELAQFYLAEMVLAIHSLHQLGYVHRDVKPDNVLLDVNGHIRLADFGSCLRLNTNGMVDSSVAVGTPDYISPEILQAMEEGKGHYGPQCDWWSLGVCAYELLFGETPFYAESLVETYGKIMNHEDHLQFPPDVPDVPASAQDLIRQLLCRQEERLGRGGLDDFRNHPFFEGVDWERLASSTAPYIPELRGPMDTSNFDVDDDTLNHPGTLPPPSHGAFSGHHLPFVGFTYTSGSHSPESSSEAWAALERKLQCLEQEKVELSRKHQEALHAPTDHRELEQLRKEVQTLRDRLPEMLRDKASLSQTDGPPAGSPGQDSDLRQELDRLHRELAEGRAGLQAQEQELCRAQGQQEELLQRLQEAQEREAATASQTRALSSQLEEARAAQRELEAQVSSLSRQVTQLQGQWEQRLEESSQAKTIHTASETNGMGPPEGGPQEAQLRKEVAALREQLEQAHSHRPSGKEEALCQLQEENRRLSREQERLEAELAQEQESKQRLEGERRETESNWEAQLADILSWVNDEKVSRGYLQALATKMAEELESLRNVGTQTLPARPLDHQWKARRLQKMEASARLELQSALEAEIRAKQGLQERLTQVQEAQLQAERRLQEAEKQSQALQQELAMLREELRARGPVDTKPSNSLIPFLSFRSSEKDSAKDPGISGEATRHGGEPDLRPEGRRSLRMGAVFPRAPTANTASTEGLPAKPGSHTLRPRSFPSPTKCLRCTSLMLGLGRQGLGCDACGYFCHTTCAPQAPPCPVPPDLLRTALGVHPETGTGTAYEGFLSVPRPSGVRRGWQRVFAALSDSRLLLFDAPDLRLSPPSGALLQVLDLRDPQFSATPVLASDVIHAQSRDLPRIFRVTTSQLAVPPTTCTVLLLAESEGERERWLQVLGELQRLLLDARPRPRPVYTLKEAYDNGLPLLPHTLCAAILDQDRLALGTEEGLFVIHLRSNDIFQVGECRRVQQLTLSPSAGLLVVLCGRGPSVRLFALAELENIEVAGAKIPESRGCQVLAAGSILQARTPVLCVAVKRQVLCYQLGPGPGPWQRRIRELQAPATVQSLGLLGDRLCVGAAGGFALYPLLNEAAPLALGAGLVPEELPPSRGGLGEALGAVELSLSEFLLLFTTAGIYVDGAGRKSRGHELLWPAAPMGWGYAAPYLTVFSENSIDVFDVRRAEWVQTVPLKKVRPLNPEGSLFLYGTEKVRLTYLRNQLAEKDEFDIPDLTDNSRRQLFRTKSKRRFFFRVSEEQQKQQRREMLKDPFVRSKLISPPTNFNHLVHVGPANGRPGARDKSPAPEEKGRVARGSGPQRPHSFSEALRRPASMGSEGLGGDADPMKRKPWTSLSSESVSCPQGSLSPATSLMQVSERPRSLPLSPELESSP
T13 sequence (Q96SB4 whole entry): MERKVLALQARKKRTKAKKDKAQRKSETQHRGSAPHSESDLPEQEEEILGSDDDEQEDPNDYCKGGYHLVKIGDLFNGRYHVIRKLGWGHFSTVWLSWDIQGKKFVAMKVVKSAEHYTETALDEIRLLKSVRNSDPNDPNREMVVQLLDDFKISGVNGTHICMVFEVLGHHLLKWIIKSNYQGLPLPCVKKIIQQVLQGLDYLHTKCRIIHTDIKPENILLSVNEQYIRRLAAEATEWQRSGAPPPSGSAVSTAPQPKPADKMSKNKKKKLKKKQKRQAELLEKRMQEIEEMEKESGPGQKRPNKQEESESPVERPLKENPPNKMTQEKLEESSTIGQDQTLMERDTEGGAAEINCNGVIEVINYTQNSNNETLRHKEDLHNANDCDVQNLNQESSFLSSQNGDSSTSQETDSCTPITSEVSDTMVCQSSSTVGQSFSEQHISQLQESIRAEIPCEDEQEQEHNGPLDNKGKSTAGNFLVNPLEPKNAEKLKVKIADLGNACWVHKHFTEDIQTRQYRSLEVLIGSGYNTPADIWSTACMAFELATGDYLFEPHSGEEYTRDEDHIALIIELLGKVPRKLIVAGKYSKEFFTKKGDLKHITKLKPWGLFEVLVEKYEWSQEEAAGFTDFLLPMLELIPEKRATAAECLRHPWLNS
T14 sequence (Q9P1W9 whole entry): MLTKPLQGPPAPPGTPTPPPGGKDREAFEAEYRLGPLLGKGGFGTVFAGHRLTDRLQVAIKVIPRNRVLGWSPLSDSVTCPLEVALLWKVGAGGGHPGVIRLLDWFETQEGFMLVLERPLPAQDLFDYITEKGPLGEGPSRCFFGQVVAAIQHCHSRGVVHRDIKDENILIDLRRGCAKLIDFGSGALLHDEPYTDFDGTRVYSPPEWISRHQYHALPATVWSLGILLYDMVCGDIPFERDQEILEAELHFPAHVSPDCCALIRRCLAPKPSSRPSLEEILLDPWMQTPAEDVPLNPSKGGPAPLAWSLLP

For the molecule `Nc1cc(C(F)(F)F)c(-c2cc(N3CCOCC3)nc(N3CCOCC3)n2)cn1` [Buparlisib], the remaining activity at 1 µM stood at 85% at panel of 442 kinases [1]; 83% at panel of 442 kinases [2]; 100% on panel of 442 kinases [3]; 99% at panel of 442 kinases [4]; 94% at panel of 442 kinases [5]; 99% on panel of 442 kinases [6]. Also, the remaining activity at 1 µM came to 100% at panel of 442 kinases [7]; 74% at panel of 442 kinases [8]; 100% on panel of 442 kinases [9] (setting [16]); 97% on panel of 442 kinases [9] (setting [17]); 100% at panel of 442 kinases [10]; 100% at panel of 442 kinases [11]. For the same molecule, the remaining activity at 1 µM at panel of 442 kinases [12] came out at 100%; at panel of 442 kinases [13] it was 100%; on panel of 442 kinases [14], 91%. Also, the remaining activity at 10 µM at panel of 442 kinases [1] (setting [15]) came to 94%; at panel of 442 kinases [2] (setting [15]) it was 87%; at panel of 442 kinases [3] (setting [15]) it was 100%; at panel of 442 kinases [4] (setting [15]), 100%; on panel of 442 kinases [5] (setting [15]) it was 100%; at panel of 442 kinases [6] (setting [15]), 100%. The remaining activity at 10 µM at panel of 442 kinases [7] (setting [15]) worked out at 100%; at panel of 442 kinases [8] (setting [15]) it was 100%; at panel of 442 kinases [9] (kinase RSK1(Kin.Dom.1-N-terminal), read-out: RSK1(Kin.Dom.1-N-terminal) (% of control at 10 µM)) it was 100%; at panel of 442 kinases [9] (kinase RSK1(Kin.Dom.2-C-terminal), read-out: RSK1(Kin.Dom.2-C-terminal) (% of control at 10 µM)), 98%; on panel of 442 kinases [10] (setting [15]) it was 100%; on panel of 442 kinases [11] (setting [15]), 71%. Moreover, the remaining activity at 10 µM at panel of 442 kinases [12] (setting [15]) was 100%; on panel of 442 kinases [13] (10 µM, read-out: SRPK1 (% of control at 10 µM)), 100%; at panel of 442 kinases [14] (setting [15]) it was 100%.

With `Cn1c(=O)n(-c2ccc(C(C)(C)C#N)cc2)c2c3cc(-c4cnc5ccccc5c4)ccc3ncc21` [Dactolisib, 2-methyl-2-[4-(3-methyl-2-oxo-8-quinolin-3-yl-2,3-dihydroimidazo[4,5-c]quinolin-1-yl)-phenyl] propionitrile], the remaining activity at 1 µM is 82% on panel of 442 kinases [1]; 100% at panel of 442 kinases [2]; 100% at panel of 442 kinases [3]; 23% on panel of 442 kinases [4]; 100% at panel of 442 kinases [5]; 100% at panel of 442 kinases [6]. Further, the remaining activity at 1 µM on panel of 442 kinases [7] worked out at 83%; at panel of 442 kinases [8] it was 60%; at panel of 442 kinases [9] (setting [16]), 77%; at panel of 442 kinases [9] (setting [17]), 61%; at panel of 442 kinases [10], 81%; on panel of 442 kinases [11] it was 65%. The results for the remaining activity at 1 µM at panel of 442 kinases [12], on panel of 442 kinases [13] and on panel of 442 kinases [14] were 98%, 88% and 100%, respectively.

On to `COc1ncc(-c2ccc3nccc(-c4ccnnc4)c3c2)cc1NS(=O)(=O)c1ccc(F)cc1F` [Omipalisib], for which the remaining activity at 1 µM was determined as 100% on panel of 442 kinases [1]; 100% at panel of 442 kinases [2]; 100% at panel of 442 kinases [3]; 88% at panel of 442 kinases [4]; 59% on panel of 442 kinases [5]; 100% on panel of 442 kinases [6]. The remaining activity at 1 µM on panel of 442 kinases [7] is 48%; at panel of 442 kinases [8] it was 95%; at panel of 442 kinases [9] (setting [16]), 95%; on panel of 442 kinases [9] (setting [17]), 95%; at panel of 442 kinases [10] it was 100%; on panel of 442 kinases [11], 100%. For the same molecule, the results for the remaining activity at 1 µM on panel of 442 kinases [12], at panel of 442 kinases [13] and on panel of 442 kinases [14] were 87%, 100% and 98%, respectively.

`FC(F)c1nc2ccccc2n1-c1nc(N2CCOCC2)nc(N2CCOCC2)n1` [ZSTK474, 2-(difluoromethyl)-1-[4,6-di(4-morpholinyl)-1,3,5-triazin-2-yl]-1H-benzimidazole]: the remaining activity at 1 µM was determined as 96% on panel of 442 kinases [1]; 100% at panel of 442 kinases [2]; 85% at panel of 442 kinases [3]; 72% on panel of 442 kinases [4]; 100% on panel of 442 kinases [5]; 96% on panel of 442 kinases [6]. The remaining activity at 1 µM on panel of 442 kinases [7] turned out to be 63%; at panel of 442 kinases [8] it was 92%; at panel of 442 kinases [9] (setting [16]) it was 100%; at panel of 442 kinases [9] (setting [17]), 83%; on panel of 442 kinases [10], 88%; at panel of 442 kinases [11], 57%. Further, the remaining activity at 1 µM on panel of 442 kinases [12] was 100%; on panel of 442 kinases [13], 67%; at panel of 442 kinases [14] it was 100%.

(Values after publication PMC5564600 (Oncotarget, 2017).)
